Experimental data: patent US12492195B2, “Preparation method for and crystal form of 3-aryloxy-3-five-membered heteroaryl-propylamine compound” (Zhangzhou Pien Tze Huang Pharmaceutical Co., Ltd., priority 2020, dated 2025)

Legend:
HepG2 cell = assay: Cytotoxicity test (CCK-8), hepatotoxicity; type: cell-based; conditions: Homo sapiens, HepG2, 72 h
Experimental: (§1) HepG-2 and SH-SY5Y cells were prepared and placed in a 10 cm dish and cultured in a cell incubator in 5% CO2 at 37° C. Trypsin was used to digest and cells were re-suspended and counted. The cells were transferred to 96-well plate with 8000 cells in a well (100 μl/well). The plate was cultured in a cell incubator for 24 h in 5% CO2 at 37° C. A serial of gradient concentration dilutions of compound with 2-fold dilution were prepared, and the system was 100 μL/well. The supernatant of cell culture system on the first day in the 96-well plate was removed, and fresh-prepared drug concentration system was added into culture plate wells containing cultured cells (duplicate wells were set). The cells were cultured in a cell incubator in 5% CO2 at 37° C. for 72 h. After the cell culture was completed, the supernatant of cell culture system was removed from 96-well plate, 100 μl of detection solution containing 10% CCK-8 medium was added into each well, and the cells were cultured in a cell incubator in 5% CO2 at 37° C. for 1 h and then taken out after time was up. Microplate reader was used to measure the absorbance at 450 nm. Data was processed to calculate cytotoxicity, and IC50 was calculated by GraphPad Prism. The cytotoxicity calculation formula was as follows: Cytotoxicity (%)=[A(0 Dosing)−A(Dosing)]/[A(0 Dosing)-A (Control)]×100 • A (Dosing): the absorbance of wells containing cells, CCK-8 solution and drug solution. • A (Control): the absorbance of wells containing medium and CCK-8 solution and without cells. • A (0 Dosing): the absorbance of wells containing cells and CCK-8 solution and without drug solution. Experimental Result

SH-SY5Y = assay: Cytotoxicity test (CCK-8), neurotoxicity; type: cell-based; conditions: Homo sapiens, 72 h
Experimental: as §1

C57BL/6 mice = assay: formalin pain model in mice; type: in vivo; conditions: for paw licking time: Phase II, 10-60 min; for analgesic effect (EDso) in phase II pain: intraperitoneal
Experimental: Before the start of experiment, the mice were allowed to adapt to the experimental environment for 72 h with free feeding and drinking water. The test drug was administrated by intraperitoneal injection at a dose of 20 mg/kg, and then the mice were placed in a transparent, ventilated plexiglass cylinder for 1 h, and then 20 μl of 4% formalin solution was injected into the left hind plantar of mice of each group by microinjector. The paw pain response of mice was real-time recorded by miniature camera. The frequency of lifting (1 score/time), shaking (2 score/time), and licking (3 score/time) the left paw and the time length of licking left paw were used as indicators of pain response, the cumulative scoring and licking time in two stages of 0-10 min (phase I, acute pain phase) and 10-60 min (phase II, inflammatory pain phase) were observed and recorded, and the statistical analysis was conducted.
100 male C57BL/6 mice (9-week aged) were randomly divided into 10 groups to evaluate analgesic activity of two compounds in the formalin pain model in mice, and each group had 10 mice. […] Before the start of experiment, the mice were allowed to adapt experimental environment for 72 h with free feeding and drinking water.
After administration, the mice were placed in a transparent, ventilated plexiglass cylinder, and 1 h later, 20 μl of 4% formalin solution was injected into the left hind plantar of mice in each group by micro-injector, and paw pain response in mice was recorded in real time by a mini-camera. The time length of licking left paw was used as an indicator of pain response, licking time in 0-10 min (phase I) and 10-60 min (phase II) was observed and recorded, and the statistical analysis was conducted. The half effective dose (EDso) of three compounds was calculated: EDso referred to the dose of the drug that decreased licking time by half as compared with the blank control group. The less the ED50 value was, the lower the effective analgesic dose of the compound was and the stronger the analgesic effect was.

C57 mice = assay: hot plate pain model in mice; type: in vivo; conditions: 10 mg/kg intraperitoneal, hot plate 55° C.
Experimental: SPF-grade C57 male mice were placed at hot plate with constant 55±0.1° C. […] If the pain reaction of mice was observed, the mice were taken out immediately to prevent mice from scalding. […] Appropriate amount of test compounds were added into required volume of physiological saline and fully suspended, and the concentration of the drug compound was prepared as 1 mg/ml. The standard volume of administration to mice was 10 ml/kg (or 0.1 ml/10 g). The administration mode was intraperitoneal administration. […] The administration volume was 10 ml/kg. […] Hot plate observation indicator is the time latency of mice on the hot plate at 55±0.1° C. Measurement and recording were conducted at 3 h before administration and 15 min, 30 min, and 60 min after administration. Maximum possible effect (MPE) % was used to evaluate analgesic effect of each compound, i.e., MPE %=[(Post drug latency-baseline latency)/(30-baseline latency)]×100. MPE % at different time points was recorded. The higher the value of MPE % was, the stronger the analgesic effect of the compound was.

| Structure (SMILES) | IC50 (HepG2 cell) [µM] | IC50 (SH-SY5Y) [µM] | paw licking time (C57BL/6 mice; 1 mg/kg intraperitoneal) [s] | paw licking time (C57BL/6 mice; 5 mg/kg intraperitoneal) [s] | paw licking time (C57BL/6 mice; 10 mg/kg intraperitoneal) [s] | paw licking time (C57BL/6 mice; 20 mg/kg intraperitoneal) [s] | analgesic effect (EDso) in phase II pain (C57BL/6 mice; phase II (10-60 min)) [mg/kg] | analgesic activity compared with the positive controls gabapentin and duloxetine (C57 mice) | paw licking time (C57BL/6 mice; 0.1 mg/kg intraperitoneal) [s] | paw licking time (C57BL/6 mice; 0.5 mg/kg intraperitoneal) [s] | decrease of paw licking time as compared with blank vehicle (C57BL/6 mice; 1 mg/kg, phase II (10-60 min)) | analgesic activity, licking time (C57BL/6 mice; 20 mg/kg intraperitoneal, phase I (0-10 min) and phase II (10-60 min), compared with saline group) |
| --- | --- | --- | --- | --- | --- | --- | --- | --- | --- | --- | --- | --- |
| CNCC[C@H](Oc1cccc2ccccc12)c1cccs1 [Duloxetine (S configuration), Duloxetine, reference compound] | 33 | 28 | 259.97 ± 64.44 | 230.49 ± 41.31 | 162.83 ± 36.27 | 72.27 ± 17.29 | 8.00 | – | – | – | – | – |
| CNCC[C@H](Oc1cccc2ccoc12)c1cccs1 [IC-1, (S)-3-(Benzofuran-7-yloxy)-N-methyl-3-(thiophen-2-yl)propan-1-amine] | 60 to 120 | 60 to 120 | 171.57 ± 39.69 | 158.02 ± 25.18 | 35.68 ± 11.77 | – | 2.22 | stronger than those of gabapentin and duloxetine | 339.35 ± 27.90 | 368.16 ± 44.46 | more than 50% | – |
| CNCC[C@H](Oc1cccc2c1CCC2)c1cccs1 [IC-10] | 60 to 120 | 60 to 120 | – | – | – | – | – | stronger than those of gabapentin and duloxetine | – | – | – | almost completely inhibited licking paw behavior caused by pain |
